Laboratory results taken from paper PMC5636194 (Journal of nanomedicine & nanotechnology, 2017).

Assays:
[1] = system: T98G cells; assay: Cellular bioenergetics analysis (Seahorse XF24 oxygen consumption); assay type: cell-based
Method: (§1) Assay was performed according to manufacturer’s directions and as previously described, where U87 and T98G cells were plated at 30,000 cells/well in an XF24 plate and allowed to attach overnight. Media was replaced an hour before onset of the assay with XF24 media, and then, rotenone/antimycin A mix, FCCP, and oligomycin were diluted in XF24 media and loaded into the provided cartridge to obtain final concentrations of 100 nM, 300 nM, and 1 µg/mL, respectively. […] Addition of the compounds into the medium took place at designated time points, and oxygen consumption was examined using a Seahorse Bioscience XF24 Extracellular Flux Analyzer.

[2] = system: U87 cells; assay: as above; assay type: cell-based
Method: as §1

[3] = system: U87 cells; assay: ATP quantification (luciferase luminescence); assay type: cell-based; conditions: 10 µM, 24 hours
Method: U87 and T98G cells were seeded into 6-well plates at 200,000 cells/well in 1 mL DMEM high glucose with pyruvate (10% FBS and 1% Pen/Strep) and allowed to grow overnight. […] Following a modified protocol outlined in an ATP kit obtained from Life Technologies, cells were washed twice with PBS, then lysed with 150 uL of ATP assay buffer (500 mM Tricine buffer, pH 7.8, 100 mM MgSO4, 2 mM EDTA, and 2 mM sodium azide) containing 1% Triton X-100, dislodged by scraping with a pipette tip, and transferred to 1.5 mL Eppendorf tubes on ice for 5 minutes. 10 uL of cell lysate was then added in triplicate to a white 96-well plate, also containing ATP standards. Before reading the plate, 100 uL of ATP assay buffer containing 90 µg/mL D-luciferin, 20 µM DTT, and 25 µg/mL Luciferase) was added to each well. Luminescence was calculated using a Tecan Infinite F200 plate reader. Protein concentration was also determined using the Pierce 660 nm Protein Assay (660 nm absorbance), with ATP production standardized to protein values.

[4] = system: T98G cells; assay: Glucose quantification in medium; assay type: cell-based; conditions: 10 µM, 48 and 72 hours
Method: Glucose was measured per instructions from a kit manufactured by Sigma-Aldrich. Briefly, 200,000 U87 and T98G cells were seeded into a 6-well plate and incubated overnight. […] After designated times, medium was removed, diluted 1:100 in glucose assay buffer (glucose oxidase, horseradish peroxidase, and O-dianisidine), then added to a 96-well plate at a 1:3 dilution in glucose assay buffer. The plate was then incubated at 37°C and 5% CO2 for 30 minutes, and the reactions halted by the addition of 66 uL of 12 N sulfuric acid. Absorbance values were evaluated at 540 nm on a Biotek Synergy 2 plate reader.

[5] = system: T98G cells; assay: Cell viability (calcein AM); assay type: cell-based; conditions: 10 µM
Method: (§2) U87 and T98G cells were seeded at 750 cells/well in 100 µL DMEM high glucose with pyruvate (10% FBS and 1% Pen/Strep) in a black, 96-well flat-bottomed plate, and allowed to attached overnight. […] The next morning, the plates were washed with 200 µL/well 1X PBS, which was removed and replaced with 95 µL calcein AM reagent at 1:1000 dilution in 1X PBS.

[6] = system: U87 cells; assay: Cell viability (calcein AM); assay type: cell-based
Method: as §2

[7] = system: T98G cells; assay: Liquid colony formation assay (4 weeks); assay type: cell-based; conditions: 10 µM
Method: (§3) Cells were seeded into 6-well culture plates (Falcon) at a concentration of 50 cells/well in 1 mL DMEM high glucose with pyruvate (Gibco), 10% FBS, and 1% Pen/Strep. Treatments were added to each well to obtain a pre-determined final concentration in 2 mL/well total volume. Plates were incubated for 4 weeks undisturbed, and only carefully received a media change at week 3 with or without drug treatments if colonies were not visible. Following completion of the 4-week incubation period, colonies were stained as previously described. […] Stained colonies were counted, with the number and size documented.

[8] = system: U87 cells; assay: Liquid colony formation assay (4 weeks); assay type: cell-based; conditions: 10 µM
Method: as §3

[9] = In vivo bio-distribution (LC-MS/MS, noncompartmental PK); set-up: species or system mice (CD-1); conditions: female, mouse; CD-1 mice, single IV dose 8 mg/kg, plasma
Method: Female mice (CD-1 background, 5–6 weeks old) were used for all bio-distribution studies. […] Plasma was processed from whole blood by centrifugation of EDTA-treated blood for 10 minutes at 9,600g, then stored at −80°C until analyzed. In addition, kidneys, spleen, lung, liver, and brain were removed, weighed; flash frozen, then homogenized in a 3-fold volume of PBS for further analysis and stored at −80°C. […] Next, 100 µL of each sample (plasma or tissue homogenate) was crashed with 200 µL methanol+0.1% formic acid+50 ng/mL (final concentration) n-benzyl benzamide internal standard, vortexed for 15 seconds, incubated at room temperature for 10 minutes, then centrifuged at 16,000g for 5 minutes at 4°C. 250 µL of supernatant was then transferred to an Eppendorf tube, centrifuged as previously described, then 195 µL of supernatant transferred to an HPLC vial with insert for analysis by HPLC-MS/MS (AB Sciex 3200 QTrap). […] The limit of detection (LOD) was set at the standard concentration providing an analyte signal three-fold above blank matrix. […] Per UTSW’s lab SOPs, samples falling below LOQ and above LOD are assigned a value of ½LOQ. Samples falling below LOQ and LOD are assigned a value of 0.

- AUC [9]: 2.13 µg·h/mL
SMILES: CN(C)c1ccc2nc3ccc(=[N+](C)C)cc-3sc2c1 [MB, methylene blue]
- Increase in OCR ([1]; 10 µM): 1.5 fold
- Oxygen consumption rate (OCR) ([1]; 1 and 10 µM): significantly increased
- Oxygen consumption rate (OCR) ([2]; 10 µM): significant increase
- Oxygen consumption rate (OCR) ([2]; lower treatment concentration (1 µM)): not seen
- ATP levels compared to control [3]: increased
- Sample glucose compared to untreated cells [4]: significant increases
- Initial reduction in cell viability ([5]; 24 and 72 hours): 25%
- Additional reduction in cell viability ([5]; through […]): ~ 50%
- Cell viability over time course ([6]; 10 µM, 24, 72 and […]): did not induce cell death until 72 and 144 hours
- Cell viability ([6]; 10 µM, 24-hour treatment): increase in cell viability
- Average colony size compared to control [7]: significantly reduced
- Average number of colonies [7]: significantly reduced
- Average colony size compared to control [8]: significantly reduced
- Average number of colonies [8]: reduced
